Here are results for 30 molecules from patent US20090209577A1, “Novel Triazolopyridine Compounds” (PFIZER INC., priority 2004, published 2009).

Structures are written as SMILES. Counter-ions that a name gives are not always drawn. Bounds are passed on as bounds.

The target in this test is T1, human p38 kinase alpha (Homo sapiens, UniProt Q16539).
T1 construct: The coding region of the human p38a cDNA was obtained by PCR-amplification from RNA isolated from the human monocyte cell line THP.1; made in house; host or cells: E. coli DH10B
T1 sequence (Q16539 whole entry): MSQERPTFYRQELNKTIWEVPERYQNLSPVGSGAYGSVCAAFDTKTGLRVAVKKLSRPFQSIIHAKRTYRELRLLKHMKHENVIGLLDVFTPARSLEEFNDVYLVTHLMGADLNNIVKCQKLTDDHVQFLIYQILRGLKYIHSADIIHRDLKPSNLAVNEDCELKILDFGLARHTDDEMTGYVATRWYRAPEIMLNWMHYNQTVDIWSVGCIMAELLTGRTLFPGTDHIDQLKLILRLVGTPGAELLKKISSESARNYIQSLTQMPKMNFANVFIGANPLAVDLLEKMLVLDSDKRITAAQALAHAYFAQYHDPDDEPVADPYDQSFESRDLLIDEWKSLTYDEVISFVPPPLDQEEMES
Description: p38 kinase in vitro assay (PHAS-I / 32P-ATP format or EGFRP / 33P-ATP format). The class given is biochemical. To be noted: activated human p38 kinase alpha, 50 μM unlabeled ATP; two assay formats, table does not say which. The method, then: The ability of compounds to inhibit human p38 kinase alpha was evaluated using two in vitro assay methods. In the first method, activated human p38 kinase alpha phosphorylates a biotinylated substrate, PHAS-I (phosphorylated heat and acid stable protein-insulin inducible), in the presence of gamma ^32P-ATP (^32P-ATP). PHAS-I was biotinylated prior to the assay and provides a means of capturing the substrate, which is phosphorylated during the assay. p38 Kinase was activated by MKK6. Compounds were tested in 10 fold serial dilutions over the range of 100 μM to 0.001 μM using 1% DMSO. Each concentration of inhibitor was tested in triplicate.
All reactions were carried out in 96 well polypropylene plates. Each reaction well contained 25 mM HEPES pH 7.5, 10 mM magnesium acetate and 50 μM unlabeled ATP. Activation of p38 was required to achieve sufficient signal in the assay. Biotinylated PHAS-1 was used at 1-2 μg per 50 μl reaction volume, with a final concentration of 1.5 μM. Activated human p38 kinase alpha was used at 1 μg per 50 μl reaction volume representing a final concentration of 0.3 μM. Gamma ^32P-ATP was used to follow the phosphorylation of PHAS-1. ^32P-ATP has a specific activity of 3000 Ci/mmol and was used at 1.2 μCi per 50 μl reaction volume. The reaction proceeded either for one hour or overnight at 30° C.
Following incubation, 20 μl of reaction mixture was transferred to a high capacity streptavidin coated filter plate (SAM-streptavidin-matrix, Promega) prewetted with phosphate buffered saline. The transferred reaction mix was allowed to contact the streptavidin membrane of the Promega plate for 1-2 minutes. Following capture of biotinylated PHAS-1 with ^32P incorporated, each well was washed to remove unincorporated ^32P-ATP three times with 2M NaCl, three washes of 2M NaCl with 1% phosphoric, three washes of distilled water and finally a single wash of 95% ethanol. Filter plates were air-dried and 20 μl of scintillant was added. The plates were sealed and counted.
A second assay format was also employed that is based on p38 kinase alpha induced phosphorylation of EGFRP (epidermal growth factor receptor peptide, a 21 mer) in the presence ^33P-ATP. Compounds were tested in 10 fold serial dilutions over the range of 100 μM to 0.001 μM in 1% DMSO. Each concentration of inhibitor was tested in triplicate. Compounds were evaluated in 50 μl reaction volumes in the presence of 25 mM Hepes pH 7.5, 10 mM magnesium acetate, 4% glycerol, 0.4% bovine serum albumin, 0.4 mM DTT, 50 μM unlabeled ATP, 25 μg EGFRP (200 μM), and 0.05 μCi ^33P-ATP. Reactions were initiated by addition of 0.09 μg of activated, purified human GST-p38 kinase alpha. Activation was carried out using GST-MKK6 (5:1, p38:MKK6) for one hour at 30° C. in the presence of 50 μM ATP. Following incubation for 60 minutes at room temperature, the reaction was stopped by addition of 150 μl of AG 1×8 resin in 900 mM sodium formate buffer, pH 3.0 (1 volume resin to 2 volumes buffer). The mixture was mixed three times with pipetting and the resin was allowed to settle. A total of 50 μl of clarified solution head volume was transferred from the reaction wells to Microlite-2 plates. 150 μl of Microscint 40 was then added to each well of the Microlite plate, and the plate was sealed, mixed, and counted.
The above protocol assays were used to determine the IC50 values for compounds in Examples 1-71 above.
Broadly, the IC50 is the midpoint of a concentration-inhibition curve. Take `COC(=O)c1ccc(C)c(-c2nnc3ccc(CCc4ccc(F)cc4F)cn23)c1` [Example 17, methyl 3-{6-[2-(2,4-difluorophenyl)ethyl][1,2,4]triazolo[4,3-a]pyridin-3-yl}-4-methylbenzoate]: half-maximal inhibition (IC50) required 0.0171 µM. This counts as double-digit nanomolar.

In turn, `COC(=O)c1cccc(-c2nnc3ccc(Cc4ccc(F)cc4F)cn23)c1` [Example 58, methyl 3-[6-(2,4-difluorobenzyl)[1,2,4]triazolo[4,3-a]pyridin-3-yl]benzoate] yielded an IC50 of 0.141 µM.

`CC(C)c1nnc2cc(Cl)c(Sc3ccc(F)cc3F)cn12` [Example 35, 7-chloro-6-[(2,4-difluorophenyl)thio]-3-isopropyl[1,2,4]triazolo[4,3-a]pyridine hydrochloride] showed a half-inhibitory concentration (IC50) of 0.889 µM.

As to `CCCCSc1ccc2nnc(C(C)C)n2c1` [Example 37, 6-(butylthio)-3-isopropyl[1,2,4]triazolo[4,3-a]pyridine hydrochloride], the concentration for half-maximal inhibition (IC50) is over 100 µM.

Molecule `O=C(O)c1cccc(-c2nnc3ccc(C(=O)c4ccc(F)cc4F)cn23)c1` [Example 66, 3-[6-(2,4-difluorobenzoyl)[1,2,4]triazolo[4,3-a]pyridin-3-yl]benzoic acid] returned a half-maximal inhibitory concentration (IC50) of over 100 µM.

Molecule `CC(C)c1nnc2ccc(COCc3ccc(F)cc3F)cn12` [Example 6, 6-{[(2,4-difluorobenzyl)oxy]methyl}-3-isopropyl[1,2,4]triazolo[4,3-a]pyridine] yielded an IC50 of over 100 µM.

As to `Cc1ccc(C(N)=O)cc1-c1nnc2n1CC(CCc1ccc(F)cc1F)CC2` (racemic) [Example 20, racemic 3-{6-[2-(2,4-difluorophenyl)ethyl]-5,6,7,8-tetrahydro[1,2,4]triazolo[4,3-a]pyridin-3-yl}-4-methylbenzamide], 1.27 µM corresponded to half-maximal inhibition (IC50).

`OCC(O)c1ccc(-c2nnc3ccc(Cc4ccc(F)cc4F)cn23)cc1` (stereo not drawn) [Example 62, 1-{4-[6-(2,4-difluorobenzyl)[1,2,4]triazolo[4,3-a]pyridin-3-yl]phenyl}ethane-1,2-diol trifluoroacetate] displayed an IC50 of 0.443 µM.

For `CC(C)c1nnc2ccc(Cc3ccc(F)cc3)cn12` [Example 69, 6-(4-fluorobenzyl)-3-isopropyl[1,2,4]triazolo[4,3-a]pyridine], inhibition was half-maximal at 2.5 µM (IC50).

With `Fc1cccc(F)c1-c1nnc2ccc(Br)cn12` [Example 40, 6-bromo-3-(2,6-difluorophenyl)[1,2,4]triazolo[4,3-a]pyridine], the IC50 was 13.3 µM.

Consider `COC(=O)c1cccc(-c2nnc3ccc(C(O)c4ccc(F)cc4F)cn23)c1` (stereo not drawn) [Example 65, methyl 3-{6-[(2,4-difluorophenyl)(hydroxy)methyl][1,2,4]triazolo[4,3-a]pyridin-3-yl}benzoate], for which the half-maximal inhibitory concentration (IC50) was 1.13 µM.

The molecule `Cc1cc(Br)ccc1-c1nnc2ccc(Sc3ccc(F)cc3F)cn12` [45 (step 2), 3 (4-bromo-2-methylphenyl)-6-[(2,4-difluorophenyl)thio][1,2,4]triazolo[4,3-a]pyridine hydrochloride] showed an IC50 of 0.141 µM. Against the preceding molecule, the IC50 is about 8-fold lower.

For the molecule `CC(C)(C)c1nnc2ccc(Cc3ccc(F)cc3F)cn12` [Example 70, 3-tert-butyl-6-(2,4-difluorobenzyl)[1,2,4]triazolo[4,3-a]pyridine], the IC50 was 0.122 µM.

On to `O=C(O)c1cccc(-c2nnc3ccc(Sc4ccc(F)cc4F)cn23)c1` [Example 64B, 3-{6-[(2,4-difluorophenyl)thio][1,2,4]triazolo[4,3-a]pyridin-3-yl}benzoic acid], for which the half-maximal inhibitory concentration (IC50) was 7.42 µM.

Molecule `COC(=O)c1cccc(-c2nnc3ccc(Sc4ccc(F)cc4F)cn23)c1` [Example 64A, methyl 3-{6-[(2,4-difluorophenyl)thio][1,2,4]triazolo[4,3-a]pyridin-3-yl}benzoate] gave an IC50 of 0.181 µM.

For `CC(C)(C)c1nnc2n1CC(c1ocnc1-c1cc(F)c(F)cc1F)CC2` (stereo not drawn) [Example 14, 3-tert-butyl-6-[4-(2,4,5-trifluorophenyl)-1,3-oxazol-5-yl]-5,6,7,8-tetrahydro[1,2,4]triazolo[4,3-a]pyridine], half-maximal inhibition (IC50) was put at 0.786 µM.

Regarding `CC(C)(C)c1nnc2ccc(C(=O)c3ccc(F)cc3F)cn12` [Example 15, (3-tert-butyl[1,2,4]triazolo[4,3-a]pyridin-6-yl)(2,4-difluorophenyl)methanone], the IC50 is 1.05 µM.

Molecule `Fc1ccc(Sc2ccc3nnc(-c4c(F)cccc4F)n3c2)c(F)c1` [Example 47, 3-(2,6-difluorophenyl)-6-[(2,4-difluorophenyl)thio][1,2,4]triazolo[4,3-a]pyridine] showed a concentration for half-maximal inhibition (IC50) of 0.0072 µM. Against the preceding molecule, the IC50 is about 150-fold lower.

Turning to `CC(C)(C)c1nnc2ccc(Sc3c(Cl)cccc3Cl)cn12` [Example 63, 3-tert-butyl-6-[(2,6-dichlorophenyl)thio][1,2,4]triazolo[4,3-a]pyridine], the midpoint of inhibition, the IC50, lay at 0.0546 µM. Compared with the last molecule, the IC50 is about 7.6-fold higher.

On to `CC1(C)OCC(CC(C)(C)c2nnc3ccc(Sc4ccc(F)cc4F)cn23)O1` (stereo not drawn) [33 (step 3), 6-[(2,4-difluorophenyl)thio]-3-[2-(2,2-dimethyl-1,3-dioxolan-4-yl)-1,1-dimethylethyl][1,2,4]triazolo[4,3-a]pyridine hydrochloride], for which the IC50 came to 0.698 µM.

`CC(C)c1nnc2ccc(/C=C\c3ccc(F)cc3F)cn12` [Example 1, 6-[(Z)-2-(2,4-difluorophenyl)vinyl]-3-isopropyl[1,2,4]triazolo[4,3-a]pyridine] had an IC50 of 0.535 µM.

The molecule `Cc1c(Sc2ccc(F)cc2F)ccc2nnc(C(C)C)n12` [Example 38, 6-[(2,4-difluorophenyl)thio]-3-isopropyl-5-methyl[1,2,4]triazolo[4,3-a]pyridine] registered an IC50 of 0.101 µM. Against the preceding molecule, the IC50 is about 5.3-fold lower.

Molecule `Cc1ccc(C(=O)O)cc1-c1nnc2ccc(CCc3ccc(F)cc3F)cn12` [Example 21, 3-{6-[2-(2,4-difluorophenyl)ethyl][1,2,4]triazolo[4,3-a]pyridin-3-yl}-4-methylbenzoic acid] returned an IC50 of 2.71 µM.

Regarding `COC(=O)c1ccc(C)c(-c2nnc3ccc(/C=C/c4ccc(F)cc4F)cn23)c1` [Example 16, methyl 3-{6-[(E)-2-(2,4-difluorophenyl)vinyl][1,2,4]triazolo[4,3-a]pyridin-3-yl}-4-methylbenzoate], the IC50 was 0.0173 µM.

For `CC(C)c1nnc2ccc([C@@H]3C[C@@H]3c3ccc(F)cc3F)cn12` (racemic) [Example 3, Racemic 6-[2-(2,4-difluorophenyl)cyclopropyl]-3-isopropyl[1,2,4]triazolo[4,3-a]pyridine], 16.9 µM corresponded to half-maximal inhibition (IC50).

`C=Cc1ccc(-c2nnc3ccc(Sc4ccc(F)cc4F)cn23)c(C)c1` [45 (step 3), 6-[(2,4-difluorophenyl)thio]-3-(2-methyl-4-vinylphenyl)[1,2,4]triazolo[4,3-a]pyridine hydrochloride] registered an IC50 of 0.106 µM.

`CC(C)c1nnc2ccc(Cc3ccccc3F)cn12` [Example 67, 6-(2-fluorobenzyl)-3-isopropyl[1,2,4]triazolo[4,3-a]pyridine]: it took 0.699 µM to reach half-maximal inhibition (IC50).

`CC(C)c1nnc2ccc(Cc3ccc(F)cc3F)cn12` [8 (step 1), 6-(2,4-difluorobenzyl)-3-isopropyl[1,2,4]triazolo[4,3-a]pyridine] returned an IC50 of 0.0261 µM.

Turning to `CC(C)c1nnc2ccc(Sc3c(Cl)cc(Cl)cc3Cl)cn12` [Example 55, 3-isopropyl-6-[(2,4,6-trichlorophenyl)thio][1,2,4]triazolo[4,3-a]pyridine hydrochloride], inhibition was half-maximal at 8.24 µM (IC50). Compared with the last molecule, the IC50 is about 320-fold higher.

In turn, `CNC(=O)c1ccc(C)c(-c2nnc3ccc(Sc4ccc(F)cc4F)cn23)c1` [Example 49, 3-{6-[(2,4-difluorophenyl)thio][1,2,4]triazolo[4,3-a]pyridin-3-yl}-N,4-dimethylbenzamide] gave a concentration for half-maximal inhibition (IC50) of 0.0399 µM.
